8 compounds from ChEMBL document CHEMBL1141399, “Synthesis and evaluation of isomeric (17alpha,20E)-11beta-methoxy-21-(trifluoromethylphenyl)-19-norpregna-1,3,5(10),20-tetraene-3,17beta-diols as ERalpha-hormone binding domain ligands: effect of the methoxy group on receptor binding and uterotrophic growth” (J Med Chem, 2007) can be followed below.

Molecules are shown by their SMILES. Calls of active or inactive are those of the source. The calls are words filed in the database; no cut-off is given here.

Experiment [1] concerns the target T1, Estrogen receptor (Homo sapiens) (UniProt P03372).
T1 sequence (whole entry): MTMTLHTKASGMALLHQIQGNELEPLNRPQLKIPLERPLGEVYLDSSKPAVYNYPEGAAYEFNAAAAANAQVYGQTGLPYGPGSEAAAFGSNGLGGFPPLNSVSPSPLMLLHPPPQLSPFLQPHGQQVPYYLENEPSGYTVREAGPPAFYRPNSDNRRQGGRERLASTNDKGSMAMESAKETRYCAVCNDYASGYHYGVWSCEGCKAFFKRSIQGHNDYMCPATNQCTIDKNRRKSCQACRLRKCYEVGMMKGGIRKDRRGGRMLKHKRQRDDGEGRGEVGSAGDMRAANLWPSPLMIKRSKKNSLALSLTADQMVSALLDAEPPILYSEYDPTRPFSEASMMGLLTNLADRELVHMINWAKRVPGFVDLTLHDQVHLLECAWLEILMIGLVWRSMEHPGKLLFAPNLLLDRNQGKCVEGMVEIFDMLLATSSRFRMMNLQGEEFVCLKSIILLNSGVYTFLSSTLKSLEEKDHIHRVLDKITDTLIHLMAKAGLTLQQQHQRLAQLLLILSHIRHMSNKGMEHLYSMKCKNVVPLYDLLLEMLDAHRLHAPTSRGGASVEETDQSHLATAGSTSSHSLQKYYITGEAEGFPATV
Briefly: Displacement of [3H]estradiol from ERalpha isolated from BL21 cells relative to estradiol at 25 degC. The format is cell-free. (In general: In a radioligand displacement assay an active substance lowers the binding of a labelled ligand.)

The species entered for another experiment is Rattus norvegicus. Put plainly: Estrogenic efficacy in rat by immature rat uterotrophic growth assay. The class given is functional, organism-based.

On to `C[C@]12CC[C@@H]3c4ccc(O)cc4CC[C@H]3[C@@H]1CC[C@@]2(O)/C=C/c1cccc(C(F)(F)F)c1`, for which, in experiment [1], the RBA was 75.

`CO[C@H]1C[C@@]2(C)[C@@H](CC[C@@]2(O)/C=C/c2ccc(C(F)(F)F)cc2)[C@@H]2CCc3cc(O)ccc3[C@H]21` returned an RBA in experiment [1] of 5.

As for `CO[C@H]1C[C@@]2(C)[C@@H](CC[C@@]2(O)/C=C/c2ccccc2)[C@@H]2CCc3cc(O)ccc3[C@H]21`, in experiment [1], the RBA came out at 15.

`C[C@]12CC[C@@H]3c4ccc(O)cc4CC[C@H]3[C@@H]1CC[C@@]2(O)/C=C/c1ccccc1` displayed an RBA in experiment [1] of 18. The outcome in the experiment filed under Rattus norvegicus was inactive.

Turning to `CO[C@H]1C[C@@]2(C)[C@@H](CC[C@@]2(O)/C=C/c2ccccc2C(F)(F)F)[C@@H]2CCc3cc(O)ccc3[C@H]21`, in experiment [1], the RBA is 212.

Compound `CO[C@H]1C[C@@]2(C)[C@@H](CC[C@@]2(O)/C=C/c2cccc(C(F)(F)F)c2)[C@@H]2CCc3cc(O)ccc3[C@H]21` returned an RBA in experiment [1] of 65.

In turn, `C[C@]12CC[C@@H]3c4ccc(O)cc4CC[C@H]3[C@@H]1CC[C@@]2(O)/C=C/c1ccccc1C(F)(F)F` gave an RBA in experiment [1] of 223.

In experiment [1], `C[C@]12CC[C@@H]3c4ccc(O)cc4CC[C@H]3[C@@H]1CC[C@@]2(O)/C=C/c1ccc(C(F)(F)F)cc1` gave an RBA of 8.
